# Results published in US6362369B1, “Phthalic acid diamide derivatives fluorine-containing aniline compounds as starting material, agricultural and horticultural insecticides, and a method for application of the insecticides” (Nihon Nohyaku Co., Ltd., priority 1997, dated 2002).
# What was measured:
# Format in all cases: in vivo
# [1] = tested on: diamondback moth (Plutella xylostella); experiment: Insecticidal effect on diamondback moth (Test Example 1); conditions: diamondback moth; for Insecticidal effect, Test Example 1: mortality judged by criterion of Test Example 1; for Insecticidal effect (Test Example 1), judged from mortality: judged by the criterion of Test Example 1
# In short: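 Oviposition by adults on Chinese cabbage seedling; immersion; air-dry; 25° C room. Count of hatched larvae at day 6 post-immersion → mortality → effect graded by criterion. Triplicate, 10 insects/group.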
# [2] = tested on: common cutworm (Spodoptera Litura); experiment: Insecticidal effect on common cutworm (Test Example 2); conditions: 500 ppm, 25° C.; for Insecticidal effect, Test Example 2: common cutworm second-instar larvae, cabbage leaf immersed, eight days after inoculation; for Insecticidal effect (Test Example 2), judged from mortality: cabbage leaf dip, second-instar larvae of common cutworm, 8 days after inoculation
# In short: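 Second-instar larvae placed in 9 cm Petri dishes with air-dried treated material, held at 25 °C. Dead and live insects counted 8 days after inoculation; mortality calculated and scored against a set criterion. Triplicate groups of 10 insects.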
# [3] = tested on: rice leafroller (Cnaphalocrocis medinalis); experiment: Insecticidal effect on rice leafroller (Test Example 3); conditions: 500 ppm, 25° C., humidity 70%; for Insecticidal effect, Test Example 3: rice leafroller third-instar larvae, rice lamina immersed, four days after inoculation; for Insecticidal effect (Test Example 3), judged from mortality: rice lamina dip, third-instar larvae of rice leafroller, 4 days after inoculation
# In short: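 Insecticidal effect is judged by a predefined criterion from dead/alive counts four days after infesting air-dried lamina with third-instar larvae, kept on moistened filter paper at 25° C, 70% humidity.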
SMILES,"Insecticidal effect, Test Example 1 [1]","Insecticidal effect, Test Example 2 [2]","Insecticidal effect, Test Example 3 [3]","Insecticidal effect (Test Example 1), judged from mortality [1]","Insecticidal effect (Test Example 2), judged from mortality [2]","Insecticidal effect (Test Example 3), judged from mortality [3]"
Cc1cc(C#N)ccc1NC(=O)c1cccc(Cl)c1C(=O)NC(C)C [compound 1330],A (100),A (100),A (100),–,–,–
Cc1cc(C(F)(F)C(F)(F)F)ccc1NC(=O)c1cccc(Cl)c1C(=O)NCc1cccc(Cl)c1 [compound 1335],A (100),C (89-80),A (100),–,–,–
Cc1cc(C(F)(F)C(F)(F)F)ccc1NC(=O)c1cccc(Cl)c1C(=O)NCc1cccc(Cl)c1Cl [compound 1353],A (100),A (100),A (100),–,–,–
Cc1cc(C(F)(F)C(F)(F)F)ccc1NC(=O)c1cccc(Cl)c1C(=O)NCc1ccccn1 [compound 1355],A (100),A (100),A (100),–,–,–
Cc1cc(C(F)(F)C(F)(F)F)ccc1NC(=O)c1cccc(Cl)c1C(=O)NC(C)c1ccccc1Cl (stereo not drawn) [compound 1362],A (100),A (100),A (100),–,–,–
Cc1cc(C(F)(F)C(F)(F)F)ccc1NC(=O)c1cccc(Cl)c1C(=O)NC(C)c1cccc(Cl)c1 (stereo not drawn) [compound 1364],A (100),A (100),A (100),–,–,–
Cc1cc(C(F)(F)C(F)(F)F)ccc1NC(=O)c1cccc(Cl)c1C(=O)NC(C)c1ccc(Cl)cc1 (stereo not drawn) [compound 1366],A (100),A (100),A (100),–,–,–
CC(C)NC(=O)c1c(Cl)cccc1C(=O)Nc1ccc(C(F)(F)C(F)(F)F)cc1F [compound 1382],A (100),A (100),A (100),–,–,–
CC(C)NC(=O)c1c(Cl)cccc1C(=O)Nc1ccc(C(F)(F)C(F)(F)F)cc1Cl [compound 1383],A (100),A (100),A (100),–,–,–
CC(C)NC(=O)c1c(Cl)cccc1C(=O)Nc1ccc(C(F)(F)C(F)(F)F)cc1C(F)(F)F [compound 1384],A (100),A (100),A (100),–,–,–
CC(C)NC(=O)c1c(I)cccc1C(=O)Nc1ccc(C(F)(F)C(F)(F)F)cc1F [compound 1385],A (100),A (100),A (100),–,–,–
CC(C)NC(=O)c1c(I)cccc1C(=O)Nc1ccc(C(F)(F)C(F)(F)F)cc1Cl [compound 1386],A (100),A (100),A (100),–,–,–
CC(C)NC(=O)c1c(I)cccc1C(=O)Nc1ccc(C(F)(F)C(F)(F)F)cc1C(F)(F)F [compound 1387],A (100),A (100),A (100),–,–,–
COc1cc(C(F)(F)C(F)(F)F)ccc1NC(=O)c1cccc(I)c1C(=O)NC(C)C [compound 1388],A (100),D (79-50),A (100),–,–,–
Cc1cc(C#N)ccc1NC(=O)c1cccc(I)c1C(=O)NC(C)C [compound 1389],A (100),A (100),A (100),–,–,–
Cc1cc(C(F)(F)C(F)(F)F)ccc1NC(=O)c1cccc(Cl)c1C(=O)NCCCO [compound 1399],A (100),A (100),A (100),–,–,–
Cc1cc(C(F)(F)C(F)(F)F)ccc1NC(=O)c1cccc(I)c1C(=O)NCc1ccccc1 [compound 1400],A (100),A (100),A (100),–,–,–

SMILES,"Insecticidal effect, Test Example 1 [1]","Insecticidal effect, Test Example 2 [2]","Insecticidal effect, Test Example 3 [3]","Insecticidal effect (Test Example 1), judged from mortality [1]","Insecticidal effect (Test Example 2), judged from mortality [2]","Insecticidal effect (Test Example 3), judged from mortality [3]"
Cc1cc(C(F)(F)C(F)(F)F)ccc1NC(=O)c1cccc(I)c1C(=O)NCc1ccccc1Cl [compound 1402],A (100),A (100),A (100),–,–,–
Cc1ccccc1CNC(=O)c1c(I)cccc1C(=O)Nc1ccc(C(F)(F)C(F)(F)F)cc1C [compound 1404],A (100),C (89-80),A (100),–,–,–
Cc1cc(C(F)(F)C(F)(F)F)ccc1NC(=O)c1cccc(Cl)c1C(=O)N(C)Cc1ccccc1 [compound 1406],A (100),A (100),A (100),–,–,–
C#CC(C)(C)NC(=O)c1ccccc1C(=O)Nc1ccc(C(F)(F)C(F)(F)F)cc1C [compound 1414],A (100),A (100),A (100),–,–,–
Cc1cc(C(F)(F)C(F)(F)F)ccc1NC(=O)c1cccc(Cl)c1C(=O)NC(C)(C)c1ccccc1 [compound 1417],A (100),A (100),A (100),–,–,–
Cc1cc(C(F)(F)C(F)(F)F)ccc1NC(=O)c1cccc(Cl)c1C(=O)NC(C)(C)Cc1ccccc1 [compound 1418],A (100),A (100),A (100),–,–,–
CC(C)(C)NC(=O)c1c(I)cccc1C(=O)Nc1ccc(C(F)(F)C(F)(F)F)cc1F [compound 1427],A (100),A (100),A (100),–,–,–
CC(C)(C)NC(=O)c1c(I)cccc1C(=O)Nc1ccc(C(F)(F)C(F)(F)F)cc1Cl [compound 1428],A (100),A (100),A (100),–,–,–
CC(C)(C)NC(=O)c1c(I)cccc1C(=O)Nc1ccc(C(F)(F)C(F)(F)F)cc1C(F)(F)F [compound 1429],A (100),A (100),A (100),–,–,–
Cc1cc(OC(F)F)ccc1NC(=O)c1cccc(I)c1C(=O)NCc1ccccc1 [compound 1430],A (100),D (79-50),A (100),–,–,–
Cc1cc(C(F)(F)C(F)(F)F)ccc1NC(=O)c1c(Cl)cccc1C(=O)N(C)Cc1ccccc1 [compound 1436],A (100),A (100),A (100),–,–,–
Cc1cc(C(F)(F)C(F)(F)F)ccc1NC(=O)c1cccc(I)c1C(=O)N(C)Cc1ccccc1 [compound 1438],A (100),A (100),A (100),–,–,–
Cc1cc(C(F)(F)C(F)(F)F)ccc1NC(=O)c1cccc(Cl)c1C(=O)N[C@@H](C)CO [compound 1445],–,–,–,A (100),A (100),A (100)
CC(C)(C)NC(=O)c1c(Cl)cccc1C(=O)Nc1ccc(C(F)(F)C(F)(F)F)cc1 [compound 1447],–,–,–,A (100),A (100),A (100)
CC(C)(C)NC(=O)c1c(Cl)cccc1C(=O)Nc1ccc(C(F)(F)C(F)(F)F)cc1F [compound 1448],–,–,–,A (100),A (100),A (100)
CC(C)(C)NC(=O)c1c(Cl)cccc1C(=O)Nc1ccc(C(F)(F)C(F)(F)F)cc1Cl [compound 1449],–,–,–,A (100),A (100),A (100)
